Here are results for 13 substances from paper PMC4412257, “2′,6′-Dimethylphenylalanine: A Useful Aromatic Amino Acid Surrogate for Tyr or Phe Residue in Opioid Peptides” (International Journal of Medicinal Chemistry, 2012).

For test [1], the target named is μ-opioid receptor. The following applies: versus [3H]DAMGO, read-out: Receptor binding affinity, Ki ± S.E., μ, cited from earlier work.
Test [2] concerns MVD (δ): mouse vas deferens, δ-receptors. In words: isolated mouse vas deferens (MVD) assay. The test is classed as cell-based. The following applies: Table 1; ratio of IC50 values. As to the method: (§1) The receptor-binding affinities of synthetic analogs were determined using rat brain, as previously reported. […] The GPI tissue contains predominantly μ-receptors, while MVD tissue contains δ-receptors. […] In contrast, 11 was devoid of activity in both assays, as expected from the binding data. […] This analog turned out to be a potent μ-antagonist and a weak δ-antagonist. […] The results of 13 are in line with observations that Dmt-D-Phe-NH2 and its C-terminally extended analog are μ-receptor antagonists.

In test [3] the target is δ-opioid receptor. The note with it: versus [3H]DT, read-out: Receptor binding affinity, Ki ± S.E., δ, cited from earlier work.
For test [4], the target named is MVD (δ): mouse vas deferens, δ-receptors. The note with it: cited from earlier work; for Ke of CTAP against the peptide, MVD: antagonist CTAP (μ); for Ke of CTAP against the peptide, MVD / Ke of N,N(Me)2Dmt-Tic-OH against the peptide, MVD: MVD assay; for Ke of N,N(Me)2Dmt-Tic-OH against the peptide, MVD: antagonist N,N(Me)2Dmt-Tic-OH (δ).
The test system of test [5] is δ-opioid receptor. In words: δ-opioid receptor binding, brain homogenate, versus [3H]DT. Set-up: species or system rat. The note with it: ratio of Ki values.
Protocol: The receptor-binding affinities of synthetic analogs were determined using rat brain, as previously reported [45].
In test [6] the test system is GPI (μ): guinea pig ileum, predominantly μ-receptors. The following applies: cited from earlier work.
For test [7], the system named is μ-opioid receptor. In words: μ-opioid receptor binding, brain homogenate, versus [3H]DAMGO. Set-up: species or system rat. The note with it: ratio of Ki values. How it is done:
as §1
Two methyl groups on Dmp^4 may interfere with the receptor interaction due to a reduction in conformational flexibility and/or enhanced lipophilicity. To further examine the usefulness of Dmp-containing DYN peptides as κ-opioid receptor ligands, the in vitro bioactivity of DYN peptides was determined using the GPI assay (Table 5).

Test [8] relates to GPI (μ): guinea pig ileum, predominantly μ-receptors. Nature of the test: isolated guinea pig ileum (GPI) assay. The test is classed as cell-based. The note with it: ratio of IC50 values. As to the method: as §1

Where two headings read alike, the source gives them in different places.

As a reminder, the Ki is a dissociation constant, usually derived from enzyme kinetics or from competition with a known ligand. The term IC50 denotes the concentration that gives 50% inhibition. Regarding “Tyr-D-Ala-Phe-Glu-Val-Val-Gly-NH2 [DT, reference compound]”, the Ki in test [1] (Table 1, rat brain) is 314 ± 53 nM; in test [1] (Table 6) it was 314 ± 53 nM; in test [3] (Table 1, rat brain), 0.0226 ± 0.0077 nM; in test [3] (Table 6) it was 0.0226 ± 0.0077 nM. Besides, the GPI/MVD in test [2] turned out to be 9342. The IC50 was 0.582 ± 0.029 nM in test [4] (Table 1), 0.582 ± 0.029 nM in test [4] (Table 6), 5440 ± 812 nM in test [6] (Table 1) and 5440 ± 812 nM in test [6] (Table 6). The “Ke of CTAP against the peptide, MVD” value in test [4] is given as more than 1000 nM. Also, the “Ke of N,N(Me)2Dmt-Tic-OH against the peptide, MVD” value in test [4] was 0.64 nM. The μ/δ in test [5] (Table 1) came to 13894.

Take [D-Dmp^3]DT [compound 21]: the Ki is 1960 ± 177 nM in test [1] (Table 1, rat brain) and 111 ± 17 nM in test [3] (Table 1, rat brain). For the same substance, in test [2], the GPI/MVD turned out to be 56. The IC50 in test [4] (Table 1) was 145 ± 15 nM; in test [6] (Table 1), 8210 ± 872 nM. Moreover, in test [5] (Table 1), the μ/δ stood at 18.

As to [D-Dmp^4]EM2 [compound 17], the Ki in test [1] (Table 1, rat brain) was 106 ± 20 nM; in test [3] (Table 1, rat brain), 1760 ± 834 nM. Also, the δ/μ in test [7] (Table 1) was determined as 17. Moreover, the MVD/GPI in test [8] (Table 1) was determined as 3.86. In addition, the IC50 in test [4] (Table 1) was 2270 ± 603 nM; in test [6] (Table 1), 587 ± 119 nM.

Turning to [D-Dmp^4]ENK [compound 11], the Ki in test [1] (Table 1, rat brain) is 2500 ± 169 nM; in test [3] (Table 1, rat brain), 8920 ± 4100 nM. Moreover, the 50% inhibitory concentration (IC50) in test [4] (Table 1) and in test [6] (Table 1) was more than 10000 nM in each case. Also, in test [5] (Table 1), the μ/δ was found to be 0.28.

Regarding [Dmp^1,3]YRFB [compound 25], in test [1] (Table 6), the inhibitory constant (Ki) was 0.0216 ± 0.0062 nM. The δ/μ in test [7] (Table 6) is listed as 78148. Also, the MVD/GPI in test [8] (Table 6) was determined as 18.2. Besides, in test [3] (Table 6), the inhibition constant Ki is 1690 ± 458 nM. Further, in test [4], the “Ke of CTAP against the peptide, MVD” value is given as 10.2 nM and the “Ke of N,N(Me)2Dmt-Tic-OH against the peptide, MVD” value is reported as more than 1000 nM. In addition, the half-maximal inhibitory concentration (IC50) in test [6] (Table 6) was 2.76 ± 0.56 nM. Also, the “Ke of CTAP against the peptide, GPI” value in test [6] (antagonist CTAP (μ), GPI assay) is 21.3 nM.

In the case of [Dmp^1]DT [compound 34], the Ki in test [1] (Table 6) is 156 ± 33 nM; in test [3] (Table 6) it was 0.329 ± 0.077 nM. The IC50 is 0.272 ± 0.054 nM in test [4] (Table 6) and 4040 ± 1120 nM in test [6] (Table 6). The μ/δ in test [5] (Table 6) was 475.

For the substance [Dmp^1]EM2 [compound 38], the Ki is 2.48 ± 1.46 nM in test [1] (Table 6) and 6760 ± 590 nM in test [3] (Table 6). The δ/μ in test [7] (Table 6) is listed as 2727. For the same substance, in test [8] (Table 6), the MVD/GPI is recorded as 8.61. The half-maximal inhibitory concentration (IC50) in test [4] (Table 6) is 661 ± 316 nM; in test [6] (Table 6), 76.9 ± 20.7 nM.

Consider [Dmp^4]EM2 [compound 16], for which the Ki in test [1] (Table 1, rat brain) was 13.2 ± 1.9 nM; in test [3] (Table 1, rat brain), 7620 ± 2570 nM. In addition, the δ/μ in test [7] (Table 1) was determined as 578. Moreover, the MVD/GPI in test [8] (Table 1) was 1.63. For the same substance, the concentration for half-maximal inhibition (IC50) was 320 ± 55 nM in test [4] (Table 1) and 196 ± 40 nM in test [6] (Table 1).

Consider [Dmt^1, D-Dmp^4]ENK [compound 13], for which the Ki in test [1] (Table 1, rat brain) is 5.61 ± 0.59 nM; in test [3] (Table 1, rat brain) it was 40.9 ± 11.5 nM. In addition, the IC50 in test [4] (Table 1) and in test [6] (Table 1) was more than 10000 nM in each case. Moreover, the “pA2 (δ antagonism)” value in test [4] (against DT as a δ agonist in the MVD assay) is listed as 5.57. Further, the μ/δ in test [5] (Table 1) stood at 0.14. In addition, the “pA2 (μ antagonism)” value in test [6] (against EM2 as a μ agonist in the GPI assay) was 6.90.

With [Dmt^1, Dmp^4]ENK [compound 12], the inhibition constant (Ki) in test [1] (Table 1, rat brain) was 0.03 ± 0.011 nM. For the same substance, in test [2], the GPI/MVD amounted to 1.38. Besides, the 50% inhibitory concentration (IC50) in test [4] (Table 1) is 1.45 ± 0.26 nM; in test [6] (Table 1), 2 ± 0.51 nM. Besides, the μ/δ in test [5] (Table 1) turned out to be 0.19.

Turning to [Phe^1]EM2 [compound 40], the figures for the Ki in test [1] (Table 6) and in test [3] (Table 6) were 54.1 ± 23.4 nM and 18900 nM, respectively. Besides, the δ/μ in test [7] (Table 6) was determined as 348. In addition, the MVD/GPI in test [8] (Table 6) was determined as 4.85. Further, the IC50 in test [4] (Table 6) was 5200 nM; in test [6] (Table 6) it was 1070 ± 309 nM.

For the substance [Phe^1]ENK [compound 33], the Ki in test [1] (Table 6) was 169 ± 12 nM; in test [3] (Table 6), 73.7 ± 19.5 nM. Moreover, the IC50 in test [4] (Table 6) and in test [6] (Table 6) was more than 10000 nM each time. Also, the μ/δ in test [5] (Table 6) is given as 2.29.

In the case of [Phe^1]YRFB [compound 42], the Ki in test [1] (Table 6) is 7.17 ± 1.03 nM; in test [3] (Table 6) it was more than 2820 nM. Moreover, the δ/μ in test [7] (Table 6) was more than 393. Also, in test [8] (Table 6), the MVD/GPI is 11.2. Also, the IC50 in test [4] (Table 6) was 7140 ± 950 nM; in test [6] (Table 6), 633 ± 89 nM.
